Test results reported in ChEMBL document CHEMBL3784995, “Inhibitors of HIV-1 maturation: Development of structure-activity relationship for C-28 amides based on C-3 benzoic acid-modified triterpenoids” (Bioorg Med Chem Lett, 2016).

Columns and labels:
[1] = Plasma concentration in cannula implanted rat at 5 mg/kg administered through oral gavage after 24 hrs by LC-MS/MS analysis; format: ADME, organism-based
[2] = Metabolic stability in rat liver microsomes at 0.5 uM by LC-MS/MS analysis in presence of NADPH; format: ADME
[3] = AUC (0 to 6 hrs) in cannula implanted rat at 5 mg/kg administered through oral gavage after 24 hrs by LC-MS/MS analysis; format: ADME, organism-based; parameters: dose 5 mg/kg, time < 6 hr, route oral; settings: in vivo
[4] = Bioavailability in cannula implanted rat at 5 mg/kg administered through oral gavage after 24 hrs by LC-MS/MS analysis; format: ADME, organism-based; settings: in vivo
[5] = system: Human immunodeficiency virus 1; test: Antiviral activity against wild type HIV1 NL4-3 habouring Gag protein V370A mutant infected in human MT2 cells after 4 to 5 days by dual-luciferase reporter gene assay; format: functional, organism-based; settings: Human immunodeficiency virus 1, NL4-3, MT2
[6] = (§1) Total AUC in cannula implanted rat at 5 mg/kg administered through oral gavage after 24 hrs by LC-MS/MS analysis; format: ADME, organism-based; parameters: dose 5 mg/kg, time AUCmax, route oral; settings: in vivo
[7] = system: Human immunodeficiency virus 1; test: Antiviral activity against wild type HIV1 NL4-3 infected in human MT2 cells after 4 to 5 days by dual-luciferase reporter gene assay in presence of human serum albumin; format: functional, organism-based; settings: Human immunodeficiency virus 1, NL4-3, MT2
[8] = Cmax in cannula implanted rat at 5 mg/kg administered through oral gavage after 24 hrs by LC-MS/MS analysis; format: ADME, organism-based; parameters: dose 5 mg/kg, route oral; settings: in vivo
[9] = system: Human immunodeficiency virus 1; test: Antiviral activity against wild type HIV1 NL4-3 habouring Gag protein delta V370 infected in human MT2 cells after 4 to 5 days by dual-luciferase reporter gene assay; format: functional, organism-based; settings: Human immunodeficiency virus 1, NL4-3, MT2
[10] = Metabolic stability in human liver microsomes at 0.5 uM by LC-MS/MS analysis in presence of NADPH; format: ADME
[11] = Plasma clearance in cannula implanted rat at 1 mg/kg, iv by LC-MS/MS analysis; format: ADME, organism-based
[12] = system: Human immunodeficiency virus 1; test: Antiviral activity against wild type HIV1 NL4-3 infected in human MT2 cells after 4 to 5 days by dual-luciferase reporter gene assay; format: functional, organism-based; settings: Human immunodeficiency virus 1, NL4-3, MT2
[13] = Cytotoxicity against human MT2 cells; format: cell-based
[14] = in vivo; settings: rat, iv, 1 mg/kg
Description: Volume of distribution at steady state in cannula implanted rat at 1 mg/kg, iv by LC-MS/MS analysis

[15] = system: Human immunodeficiency virus 1; test: Antiviral activity against wild type BVM-resistant HIV1 NL4-3 habouring Gag protein delta T371 infected in human MT2 cells after 4 to 5 days by dual-luciferase reporter gene assay; format: functional, organism-based; settings: Human immunodeficiency virus 1, NL4-3, MT2
[16] = system: Rattus norvegicus; test: as §1; format: ADME, organism-based; parameters: dose 5 mg/kg, time AUCmax, route oral; settings: in vivo, 24 h
[17] = system: Human immunodeficiency virus 1; test: Antiviral activity against wild type BVM-resistant HIV1 NL4-3 habouring Gag protein V370M mutant infected in human MT2 cells after 4 to 5 days by dual-luciferase reporter gene assay; format: functional, organism-based; settings: Human immunodeficiency virus 1, NL4-3, MT2
[18] = system: Human immunodeficiency virus 1; test: Antiviral activity against wild type BVM-resistant HIV1 NL4-3 habouring Gag protein T371A mutant infected in human MT2 cells after 4 to 5 days by dual-luciferase reporter gene assay; format: functional, organism-based; settings: Human immunodeficiency virus 1, NL4-3, MT2

Structure (SMILES)	concentration at 24 h [1] [nM]	half-life at 0.5 µM [2] [h]	AUC(0-t) at 6 h [3] [µM·h]	bioavailability [4] [%]	EC50 [5] [nM]	AUC at 24 h [6] [µM·h]	EC50 [7] [nM]	Cmax [8] [nM]	EC50 [9] [nM]	half-life at 0.5 µM [10] [h]	clearance [11] [mL/min/kg]	EC50 [12] [nM]	CC50 [13] [nM]	Vd [14] [L/kg]	EC50 [15] [nM]	AUC [16] [µM·h]	EC50 [17] [nM]	EC50 [18] [nM]
C=C(C)[C@@H]1CC[C@]2(C(=O)N(C)CCN(C)C)CC[C@]3(C)[C@H](CC[C@@H]4[C@@]5(C)CC=C(c6ccc(C(=O)O)cc6)C(C)(C)[C@@H]5CC[C@]43C)[C@@H]12	108	1.42	1.42	11	38	6.87	17	386	25	> 2	2.2	6	3000					
C=C(C)[C@@H]1CC[C@]2(C(=O)NCCC(=O)O)CC[C@]3(C)[C@H](CC[C@@H]4[C@@]5(C)CC=C(c6ccc(C(=O)O)cc6)C(C)(C)[C@@H]5CC[C@]43C)[C@@H]12	137	> 2	43.2	71	427	79.9	449	9470	> 4000	1.88	1.2	37	36000	0.02				
C=C(C)[C@@H]1CC[C@]2(C(=O)NCCN(C)C)CC[C@]3(C)[C@H](CC[C@@H]4[C@@]5(C)CC=C(c6ccc(C(=O)O)cc6)C(C)(C)[C@@H]5CC[C@]43C)[C@@H]12		> 2	1.62	17				396	31	> 2	6.1		3000	2.3	3	3.814	10	3
C=C(C)[C@@H]1CC[C@]2(C(=O)NCCc3ccccn3)CC[C@]3(C)[C@H](CC[C@@H]4[C@@]5(C)CC=C(c6ccc(C(=O)O)cc6)C(C)(C)[C@@H]5CC[C@]43C)[C@@H]12	5	> 2	0.721	3	19	1.23		172	415	0.717	3.2	15	8000	1.1	38		61	19
